Literature values, collected in patent US20080003219A1, “DELIVERY OF AN OCULAR AGENT” (MINU, L.L.C., priority 2005, published 2008).

How the values were obtained:
[1] = test system: neovascular age-related macular degeneration; details: 1 mg single intravitreal injection
[2] = test system: chronic myeloid leukemia (CML); details: CML patients who initially respond
[3] = test system: choroidal neovascularization; details: intravitreal injection in combination with verteporfin PDT, compared with PDT only

## bevacizumab
[1]
  observed inflammation: no observed inflammation
[1]; after one week
  subretinal fluid: resolution of subretinal fluid after one week
[1]; duration of improvement
  macular appearance: improved macular appearance maintained for at least four weeks

## Cc1ccc(NC(=O)c2ccc(CN3CCN(C)CC3)cc2)cc1Nc1nccc(-c2cccnc2)n1 [imatinib]
[2]
  initially responding CML patients who subsequently develop drug resistance: about 10%

B1: ranibizumab (antibody, chains of the INN, looked up, V domains shown)
VH: EVQLVESGGGLVQPGGSLRLSCAASGYDFTHYGMNWVRQAPGKGLEWVGWINTYTGEPTYAADFKRRFTFSLDTSKSTAYLQMNSLRAEDTAVYYCAKYPYYYGTSHWYFDVWGQGTLVTVSS
VL: DIQLTQSPSSLSASVGDRVTITCSASQDISNYLNWYQQKPGKAPKVLIYFTSSLHSGVPSRFSGSGSGTDFTLTISSLQPEDFATYYCQQYSTVPWTFGQGTKVEIK
modifications: Fab
[3]
  reduction in angiographic leakage: greater reduction in angiographic leakage than PDT only
